For 1 compound, Triple point temperature results are on record in the NIST ThermoML archive (doi:10.1016/j.tca.2015.07.010).

± gives the expanded uncertainty stated by the source.

In the case of `O=NN1CN(N=O)CN(N=O)C1` [1,3,5-trinitroso-1,3,5-triazacyclohexane], the Triple point temperature by setting is: (Crystal 1) 380.15 ± 2 K; (Crystal 2) 369.25 ± 2 K.
